Measured values: ChEMBL document CHEMBL1201861, “Genomics of Drug Sensitity in Cancer screening data, Wellcome Trust Sanger Institute”

Legend:
Assay in all cases: cells
Type in all cases: functional, cell-based, Homo sapiens
[1] = test system: NCI-H1623;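 further: cell viability assay used as the read-out for growth inhibition of NCI-H1623 cells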
Description: SANGER: Inhibition of human NCI-H1623 cell growth in a cell viability assay.

[2] = test system: HO-1-N-1;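 further: growth inhibition of human HO-1-N-1 cells, read out with a cell viability assay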
Description: SANGER: Inhibition of human HO-1-N-1 cell growth in a cell viability assay.

[3] = test system: LCLC-103H cell line
Description: SANGER: Inhibition of human LCLC-103H cell growth in a cell viability assay.

[4] = test system: YKG-1;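 further: cell growth inhibition, read out with a viability assay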
Description: SANGER: Inhibition of human YKG-1 cell growth in a cell viability assay.

[5] = test system: LoVo;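 further: growth inhibition of human LoVo cells, read out with a cell viability assay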
Description: SANGER: Inhibition of human LoVo cell growth in a cell viability assay.

[6] = test system: RPMI-7951
Description: SANGER: Inhibition of human RPMI-7951 cell growth in a cell viability assay.

[7] = test system: HSC-3
Description: SANGER: Inhibition of human HSC-3 cell growth in a cell viability assay.

[8] = test system: SCC-25;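 further: growth inhibition of SCC-25 cells, measured with a cell viability assay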
Description: SANGER: Inhibition of human SCC-25 cell growth in a cell viability assay.

[9] = test system: CAL-62;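 further: growth inhibition of CAL-62 cells, read out with a cell viability assay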
Description: SANGER: Inhibition of human CAL-62 cell growth in a cell viability assay.

[10] = test system: HEC-1;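 further: growth inhibition of the cell line, read out with a cell viability assay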
Description: SANGER: Inhibition of human HEC-1 cell growth in a cell viability assay.

[11] = test system: LK-2;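 further: growth inhibition of LK-2 cells, read out with a viability assay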
Description: SANGER: Inhibition of human LK-2 cell growth in a cell viability assay.

[12] = test system: C-33-A;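 further: cell viability assay measuring growth inhibition of C-33-A cells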
Description: SANGER: Inhibition of human C-33-A cell growth in a cell viability assay.

[13] = test system: NCI-H2052;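 further: growth inhibition of NCI-H2052 cells, read out with a cell viability assay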
Description: SANGER: Inhibition of human NCI-H2052 cell growth in a cell viability assay.

[14] = test system: NCI-H661;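 further: cell viability assay read-out, IC50 being the concentration that inhibits growth of the cells by half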
Description: SANGER: Inhibition of human NCI-H661 cell growth in a cell viability assay.

[15] = test system: J82;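 further: growth inhibition of J82 cells, read out with a cell viability assay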
Description: SANGER: Inhibition of human J82 cell growth in a cell viability assay.

[16] = test system: HT-3;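 further: growth inhibition measured with a cell viability readout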
Description: SANGER: Inhibition of human HT-3 cell growth in a cell viability assay.

[17] = test system: WM-115
Description: SANGER: Inhibition of human WM-115 cell growth in a cell viability assay.

[18] = test system: RMG-I;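 further: growth inhibition of human RMG-I cells, read out with a cell viability assay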
Description: SANGER: Inhibition of human RMG-I cell growth in a cell viability assay.

[19] = test system: 786-0
Description: SANGER: Inhibition of human 786-0 cell growth in a cell viability assay.

[20] = test system: HT-29;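 further: growth inhibition of human HT-29 cells, read out by a cell viability assay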
Description: SANGER: Inhibition of human HT-29 cell growth in a cell viability assay.

[21] = test system: EPLC-272H
Description: SANGER: Inhibition of human EPLC-272H cell growth in a cell viability assay.

[22] = test system: SW1463;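 further: growth inhibition of SW1463 cells, determined with a cell viability assay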
Description: SANGER: Inhibition of human SW1463 cell growth in a cell viability assay.

[23] = test system: HCC1806;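 further: growth inhibition of the cancer cell line, determined with a cell viability assay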
Description: SANGER: Inhibition of human HCC1806 cell growth in a cell viability assay.

[24] = test system: SW13;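 further: IC50 is inhibition of SW13 cell growth, read out with a cell viability assay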
Description: SANGER: Inhibition of human SW13 cell growth in a cell viability assay.

[25] = test system: KYSE-270;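 further: cell growth inhibition measured with a viability assay in the human KYSE-270 line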
Description: SANGER: Inhibition of human KYSE-270 cell growth in a cell viability assay.

[26] = test system: BT-20;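 further: cell viability assay measuring suppression of growth in human BT-20 cells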
Description: SANGER: Inhibition of human BT-20 cell growth in a cell viability assay.

[27] = test system: HT-1080
Description: SANGER: Inhibition of human HT-1080 cell growth in a cell viability assay.

[28] = test system: SK-LU-1;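 further: cell viability assay measuring growth inhibition of human SK-LU-1 cells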
Description: SANGER: Inhibition of human SK-LU-1 cell growth in a cell viability assay.

[29] = test system: SK-MES-1;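 further: growth inhibition of human SK-MES-1 cells, read out with a cell viability assay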
Description: SANGER: Inhibition of human SK-MES-1 cell growth in a cell viability assay.

[30] = test system: PFSK-1;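 further: cell viability assay measuring how strongly compounds suppress growth of human PFSK-1 cells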
Description: SANGER: Inhibition of human PFSK-1 cell growth in a cell viability assay.

[31] = test system: G-361; details: g-361
[32] = test system: A2780;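 further: growth inhibition of A2780 cells, read out with a cell viability assay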
Description: SANGER: Inhibition of human A2780 cell growth in a cell viability assay.

[33] = test system: NY
Description: SANGER: Inhibition of human NY cell growth in a cell viability assay.

[34] = test system: HSC-2;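 further: growth inhibition of human HSC-2 cells, read out by a cell viability assay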
Description: SANGER: Inhibition of human HSC-2 cell growth in a cell viability assay.

[35] = test system: HCC38;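 further: cell viability assay on the human HCC38 cell line, with IC50 marking the concentration that inhibits cell growth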
Description: SANGER: Inhibition of human HCC38 cell growth in a cell viability assay.

[36] = test system: DOK;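 further: cell viability assay read-out, values reflect inhibition of cell growth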
Description: SANGER: Inhibition of human DOK cell growth in a cell viability assay.

[37] = test system: A 172;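 further: growth inhibition of A172 cells, measured with a cell viability readout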
Description: SANGER: Inhibition of human A172 cell growth in a cell viability assay.

[38] = test system: BHT-101
Description: SANGER: Inhibition of human BHT-101 cell growth in a cell viability assay.

[39] = test system: EFM-19;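 further: growth inhibition of human EFM-19 cells, measured in a cell viability assay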
Description: SANGER: Inhibition of human EFM-19 cell growth in a cell viability assay.

[40] = test system: AU565;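 further: cell viability assay measuring growth inhibition of human AU565 cells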
Description: SANGER: Inhibition of human AU565 cell growth in a cell viability assay.

## CISPLATIN
[1]; nci-h1623
  IC50: 46.9 µM
[2]; ho-1-n-1
  IC50: 39.4 µM
[3]; lclc-103h
  IC50: 28.2 µM
[4]; ykg-1
  IC50: 10.3 µM
[5]; lovo
  IC50: 58.2 µM
[6]; rpmi-7951
  IC50: 4.06 µM
[7]; hsc-3
  IC50: 21.9 µM
[8]; scc-25
  IC50: 64.6 µM
[9]; cal-62
  IC50: 301 µM
[10]; hec-1
  IC50: 13.3 µM
[11]; lk-2
  IC50: 44.3 µM
[12]; c-33-a
  IC50: 9.11 µM
[13]; nci-h2052
  IC50: 166 µM
[14]; nci-h661
  IC50: 13.6 µM
[15]; j82
  IC50: 5.1 µM
[16]; ht-3
  IC50: 5.04 µM
[17]; wm-115
  IC50: 33.4 µM
[18]; rmg-i
  IC50: 1150 µM
[19]
  IC50: 4.47 µM
[20]; ht-29
  IC50: 610 µM
[21]; eplc-272h
  IC50: 13 µM
[22]; sw1463
  IC50: 189 µM
[23]; hcc1806
  IC50: 7.33 µM
[24]; sw13
  IC50: 14.3 µM
[25]; kyse-270
  IC50: 9.08 µM
[26]; bt-20
  IC50: 213 µM
[27]; ht-1080
  IC50: 23.9 µM
[28]; sk-lu-1
  IC50: 7.38 µM
[29]; sk-mes-1
  IC50: 129 µM
[30]; pfsk-1
  IC50: 37.7 µM
[31]
  IC50: 672 µM
[32]; a2780
  IC50: 6.39 µM
[33]; ny
  IC50: 28.2 µM
[34]; hsc-2
  IC50: 129 µM
[35]; hcc38
  IC50: 160 µM
[36]; dok
  IC50: 12.5 µM
[37]; a 172
  IC50: 78.9 µM
[38]; bht-101
  IC50: 5.82 µM
[39]; efm-19
  IC50: 245 µM
[40]; au565
  IC50: 52.5 µM

## CN(C)C(=N)NC(=N)N [METFORMIN]
[2]; Homo sapiens, HO-1-N-1
  IC50: 13200 µM
[3]; Homo sapiens, LCLC-103H
  IC50: > 20000 µM
[5]; Homo sapiens, LoVo
  IC50: > 20000 µM
[6]; Homo sapiens, RPMI-7951
  IC50: 9100 µM
[7]; Homo sapiens, HSC-3
  IC50: > 20000 µM
[8]; Homo sapiens, SCC-25
  IC50: 12200 µM
[9]; Homo sapiens, CAL-62
  IC50: > 20000 µM
[10]; Homo sapiens, HEC-1
  IC50: 16200 µM
[11]; Homo sapiens, LK-2
  IC50: 9240 µM
[12]; Homo sapiens, C-33-A
  IC50: 9400 µM
[14]; Homo sapiens, NCI-H661
  IC50: 4560 µM
[15]; Homo sapiens, J82
  IC50: 12900 µM
[16]; Homo sapiens, HT-3
  IC50: 8160 µM
[17]; Homo sapiens, WM-115
  IC50: > 20000 µM
[18]; Homo sapiens, RMG-I
  IC50: > 20000 µM
[19]; Homo sapiens
  IC50: > 20000 µM
[20]; Homo sapiens, HT-29
  IC50: > 20000 µM
[21]; Homo sapiens, EPLC-272H
  IC50: > 20000 µM
[22]; Homo sapiens, SW1463
  IC50: > 20000 µM
[23]; Homo sapiens, HCC1806
  IC50: > 20000 µM
[24]; Homo sapiens, SW13
  IC50: 10000 µM
[25]; Homo sapiens, KYSE-270
  IC50: > 20000 µM
[26]; Homo sapiens, BT-20
  IC50: 15300 µM
[27]; Homo sapiens, HT-1080
  IC50: > 20000 µM
[28]; Homo sapiens, SK-LU-1
  IC50: > 20000 µM
[29]; Homo sapiens, SK-MES-1
  IC50: > 20000 µM
[30]; Homo sapiens, PFSK-1
  IC50: > 20000 µM
[32]; Homo sapiens, A2780
  IC50: 4880 µM
[33]; Homo sapiens, NY
  IC50: 14100 µM
[34]; Homo sapiens, HSC-2
  IC50: 12100 µM
[36]; Homo sapiens, DOK
  IC50: 4250 µM
[37]; Homo sapiens, A 172
  IC50: 17500 µM
[38]; Homo sapiens, BHT-101
  IC50: 6420 µM

## CCN(CC)CCCCNc1ncc2cc(-c3cc(OC)cc(OC)c3)c(NC(=O)NC(C)(C)C)nc2n1 [PD-173074]
[1]; Homo sapiens, NCI-H1623
  IC50: > 2 µM
[2]; Homo sapiens, HO-1-N-1
  IC50: > 2 µM
[3]; Homo sapiens, LCLC-103H
  IC50: > 2 µM
[4]; Homo sapiens, YKG-1
  IC50: > 2 µM
[5]; Homo sapiens, LoVo
  IC50: > 2 µM
[6]; Homo sapiens, RPMI-7951
  IC50: > 2 µM
[7]; Homo sapiens, HSC-3
  IC50: > 2 µM
[8]; Homo sapiens, SCC-25
  IC50: > 2 µM
[9]; Homo sapiens, CAL-62
  IC50: > 2 µM
[10]; Homo sapiens, HEC-1
  IC50: > 2 µM
[11]; Homo sapiens, LK-2
  IC50: > 2 µM
[12]; Homo sapiens, C-33-A
  IC50: > 2 µM
[13]; Homo sapiens, NCI-H2052
  IC50: > 2 µM
[14]; Homo sapiens, NCI-H661
  IC50: > 2 µM
[15]; Homo sapiens, J82
  IC50: > 2 µM
[16]; Homo sapiens, HT-3
  IC50: > 2 µM
[17]; Homo sapiens, WM-115
  IC50: > 2 µM
[18]; Homo sapiens, RMG-I
  IC50: > 2 µM
[19]; Homo sapiens
  IC50: > 2 µM
[20]; Homo sapiens, HT-29
  IC50: > 2 µM
[21]; Homo sapiens, EPLC-272H
  IC50: > 2 µM
[22]; Homo sapiens, SW1463
  IC50: > 2 µM
[23]; Homo sapiens, HCC1806
  IC50: > 2 µM
[24]; Homo sapiens, SW13
  IC50: > 2 µM
[25]; Homo sapiens, KYSE-270
  IC50: > 2 µM
[26]; Homo sapiens, BT-20
  IC50: > 2 µM
[27]; Homo sapiens, HT-1080
  IC50: > 2 µM
[28]; Homo sapiens, SK-LU-1
  IC50: > 2 µM
[29]; Homo sapiens, SK-MES-1
  IC50: > 2 µM
[30]; Homo sapiens, PFSK-1
  IC50: > 2 µM
[32]; Homo sapiens, A2780
  IC50: > 2 µM
[33]; Homo sapiens, NY
  IC50: > 2 µM
[34]; Homo sapiens, HSC-2
  IC50: > 2 µM
[35]; Homo sapiens, HCC38
  IC50: > 2 µM
[36]; Homo sapiens, DOK
  IC50: > 2 µM
[37]; Homo sapiens, A 172
  IC50: 1.7 µM
[38]; Homo sapiens, BHT-101
  IC50: > 2 µM
[39]; Homo sapiens, EFM-19
  IC50: > 2 µM
[40]; Homo sapiens, AU565
  IC50: > 2 µM
